Results reported in patent publication US5521197A, “3-<1-alkylenearyl>-4-<1,2,3,6-tetrahydropyridinyl>-and 3-<1-alkylenearyl>-4-piperidinyl-1h-indoles: new 5-HT1F agonists” (Eli Lilly and Company, priority 1994, dated 1996).
Counter-ions that a name gives are not always drawn. Like-named read-outs stand apart in the source and are kept apart here. Blank lines part the entries; values can stand above or below the compound they belong to.

Key:
[1] = tested on: protein extravasation in the dura; assay: Inhibition of neuronal protein extravasation (trigeminal ganglion stimulation, Evans Blue in dura); format: in vivo, Harlan Sprague-Dawley rats or guinea pigs
[2] = tested on: neurogenic inflammation; settings: in vivo; cited from earlier work
[3] = tested on: migraine; settings: in vivo; cited from earlier work
[4] = tested on: cephalic vascular smooth muscle; settings: cited from earlier work
[5] = target: T1, 5-HT1F receptor (Homo sapiens, UniProt P30939); assay: Radioligand ([3H]5-HT) binding to the 5-HT1F receptor subtype; set-up: expressed in transfected cells; host or cells: Ltk- cells (membranes); settings: for inhibition at 1 µM: read-out: 5-HT1F BINDING, % displacement at 1000 nM
T1 sequence (P30939 1-366): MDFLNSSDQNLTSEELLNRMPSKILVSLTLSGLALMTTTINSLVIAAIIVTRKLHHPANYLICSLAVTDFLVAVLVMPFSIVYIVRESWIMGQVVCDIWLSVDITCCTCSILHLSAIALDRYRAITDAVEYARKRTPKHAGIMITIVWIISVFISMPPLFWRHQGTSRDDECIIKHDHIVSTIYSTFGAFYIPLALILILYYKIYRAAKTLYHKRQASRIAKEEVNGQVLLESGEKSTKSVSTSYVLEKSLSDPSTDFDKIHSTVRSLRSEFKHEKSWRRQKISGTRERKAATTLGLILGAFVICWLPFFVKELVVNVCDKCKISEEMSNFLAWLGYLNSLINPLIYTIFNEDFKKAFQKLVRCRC
Method: The cells were washed twice with phosphate-buffered saline, scraped from the culture dishes into 5 mL of ice-cold phosphate-buffered saline, and centrifuged at 200×g for 5 minutes at 4° C. The pellet was resuspended in 2.5 mL of ice-cold Tris buffer (20 mM Tris HCl, pH=7.4 at 23° C., 5 mM EDTA) and homogenized with a Wheaton tissue grinder. The lysate was subsequently centrifuged at 200×g for 5 minutes at 4° C. to pellet large fragments which were discarded. The supernatant was collected and centrifuged at 40,000×g for 20 minutes at 4° C. The pellet resulting from this centrifugation was washed once in ice-cold Tris wash buffer and resuspended in a final buffer containing 50 mM Tris HCl and 0.5 mM EDTA, pH=7.4 at 23° C. Membrane preparations were kept on ice and utilized within two hours for the radioligand binding assays.
Saturation studies were conducted using [^3 H]5-HT at 12 different concentrations ranging from 0.5 nM to 100 nM. […] The binding profile of drugs in competition experiments was accomplished using 10-12 concentrations of compound. […] Nonspecific binding was defined in the presence of 10 μM 5-HT. Binding was initiated by the addition of 50 μL membrane homogenates (10-20 μg). The reaction was terminated by rapid filtration through presoaked (0.5% polyethyleneimine) filters using 48R Cell Brandel Harvester (Gaithersburg, Md.). Subsequently, filters were washed for 5 seconds with ice cold buffer (50 mM Tris HCl, pH=7.4 at 4° C.), dried and placed into vials containing 2.5 mL Readi-Safe (Beckman, Fullerton, Calif.) and radioactivity was measured using a Beckman LS 5000TA liquid scintillation counter. […] Binding data was analyzed by computer-assisted nonlinear regression analysis (Accufit and Accucomp, Lunden Software, Chagrin Falls, Ohio). […] All experiments were performed in triplicate. […]

[6] = iv, read-out: Inhibition of Protein Extravasation, i.v. ID50
[7] = Table I, [3H]5-HT displacement, transfected Ltk- cell membranes, 37° C., read-out: 5-HT1F BINDING Ki

SMILES: CNS(=O)(=O)Cc1ccc2[nH]cc(CCN(C)C)c2c1 [Compound I, 3-[2-(dimethylamino)ethyl]-N-methyl-1H-indole-5-methanesulfonamide butane-1,4-dioate (1:1)]
- ED50 [1, 6]: 2.6e-05 µmol/kg

SMILES: CCN(CC)C1CCc2cccc(Cl)c2C1 (centres unmarked) [Compound IV, 8-chloro-2-diethylamino-1,2,3,4-tetrahydronaphthalene hydrochloride]
- ED50 [1, 6]: 0.00012 µmol/kg

SMILES: Oc1ccc2[nH]cc(C3CCNCC3)c2c1 [Compound III, 5-hydroxy-3-(4-piperidinyl)-1H-indole oxalate]
- ED50 [1, 6]: 8.9e-06 µmol/kg

SMILES: CNS(=O)(=O)Cc1ccc2[nH]cc(CCN(C)C)c2c1 [sumatriptan]
- blockade of neurogenic inflammation [2]: blocked
- effectiveness in the treatment of migraine [3]: effective in the treatment of migraine
- contraction of cephalic vascular smooth muscle [4]: contract cephalic vascular smooth muscle

SMILES: Cn1cc(CCN2CCC(c3c[nH]c4ccc(F)cc34)CC2)cn1 [Compound II, 5-fluoro-3-<1-<2-<1-methyl-1H-pyrazol-4-yl>ethyl>-4-piperidinyl>-1H-indolehydrochloride]
- ED50 ([1]; iv; read-out: Inhibition of Protein Extravasation, i.v. ID50): 8.6e-07 µmol/kg

SMILES: C1=C(c2c[nH]c3ccccc23)CCN(CCCOc2ccccc2)C1 [Example 38, 3-<1-<3-phenoxypropyl>-4-<1,2,3,6-tetrahydropyridinyl>>-1H-indolehydrochloride]
- Ki [5, 7]: 136 nM

- Ki [5, 7]: 191 nM
SMILES: c1ccc(OCCN2CCC(c3c[nH]c4ccccc34)CC2)cc1 [Example 40, 3-<1-<2-phenoxyethyl>-4-piperidinyl>-1H-indole hydrochloride]

- Ki [5, 7]: 35.8 nM
SMILES: COc1ccc2[nH]cc(C3CCN(CCc4ccc(F)cc4)CC3)c2c1 [Example 4, 5-methoxy-3-<1-<2-<4-fluorophenyl>ethyl>-4-piperidinyl>-1H-indolehydrochloride]

- Ki [5, 7]: 34 nM
SMILES: COc1ccccc1CCN1CCC(c2c[nH]c3ccccc23)CC1 [Example 11, 3-<1-<2-<2-methoxyphenyl>ethyl>-4-piperidinyl>-1H -indole hydrochloride]

SMILES: Cc1ccc2[nH]cc(C3=CCN(CCc4ccccc4)CC3)c2c1 [Example 23, 5-methyl-3-<1-<2-phenylethyl>-4-<1,2,3,6-tetrahydropyridinyl>>-1H-indolemaleate]
- Ki [5]: 28.3 nM

- inhibition at 1 µM ([5]; Table I, at 1000 nM): 50%
SMILES: c1ccc(CCCN2CCC(c3c[nH]c4ccccc34)CC2)cc1 [Example 48, 3-<1-<3-phenylpropyl>-4-piperidinyl>-1H-indole hydrochloride]

SMILES: COc1ccc2[nH]cc(C3=CCN(CCc4ccccc4)CC3)c2c1 [Example 21, 5-methoxy-3-<1-<2-phenylethyl>-4-<1,2,3,6-tetrahydropyridinyl>>-1H-indolehydrochloride]
- Ki [5]: 33.9 nM

- Ki [5, 7]: 36.9 nM
SMILES: NC(=O)c1ccc2[nH]cc(C3CCN(CCc4ccccc4)CC3)c2c1 [Example 31, 5-carboxamido-3-<1-<2-phenylethyl>-4-piperidinyl>-1H-indole hydrochloride]

SMILES: C1=C(c2c[nH]c3ccccc23)CCN(CCCc2ccccc2)C1 [Example 47, 3-<1-<3-phenylpropyl>-4-<1,2,3,6-tetrahydropyridinyl>>-1H-indolehydrochloride]
- inhibition at 1 µM [5]: 62%

SMILES: CN(C)C1CCc2[nH]c3ccc(O)cc3c2C1 (centres unmarked) [Compound V, 6-hydroxy-3-dimethylamino-1,2,3,4-tetrahydrocarbazole]
- ED50 [1, 6]: 8.7e-06 µmol/kg
